Reference: patent US12264163B2, “Compounds and methods for treating fibrotic pathologies” (Mayo Foundation for Medical Education and Research, priority 2019, dated 2025)

Assays:
YAP/TAZ = YAP/TAZ nuclear localization in IMR-90 and other fibroblasts / mesenchymal cells (immunofluorescence); assay type: cell-based, human; conditions: for YAP/TAZ nuclear localization: fibroblasts / mesenchymal cells on plastic, 2 hours
[1] = system: bile duct ligation (BDL)-mediated fibrosis; assay: Bile duct ligation model of liver fibrosis; assay type: in vivo, mouse; conditions: BDL mice, DHX 5 mg/kg i.p. daily Day 7 for 14 days
Experimental: Bile Duct Ligation: BDL was performed as previously described. Briefly, 8-10 weak old female C57BL/6N underwent either BDL or sham surgery. Mice were anesthetized on Day 0 following IACUC protocol, and the bile duct was ligated using sterile 3/0 silk ligatures. Sham surgery was performed by passing a silk ligature under the bile duct. Starting on Day 7, DHX (5 mg/kg) or vehicle control was administered everyday intraperitoneally (i.p.) for 14 days. Following the final DHX treatment, mice were sacrificed and the livers harvested for analysis of fibrosis.
Histological Scoring: Five μm thick sections were cut from Paraffin embedded lung tissues, and the sections were stained either with hematoxylin and eosin (H&E) or with Masson's Trichrome stain kit (Abcam). […] The severity of interstitial and peribronchiolar lung immature and mature fibrosis was estimated on a numerical scale according to Ashcroft et al. For scoring purposes, all H&E stained slides were systematically scanned at 100× magnification and successive 100× fields were scored. […] The predominant score for each field was recorded. The mean of all scores was calculated for each case. Liver trichrome stained sections were computationally measured using Image J software. […]
Hydroxyproline: Hydroxyproline content was measured using a hydroxyproline assay kit (Biovision) according to the manufacture's instruction with slight modification. […]

normal healthy mice = conditions: mouse, in vivo
Experimental: Bleomycin model of pulmonary fibrosis was used to test the efficacy of DHX in vivo in experimental fibrosis. Mice were administered bleomycin intratracheally at Day 0. On Day 10 injury and inflammation typically subside and fibrosis is ongoing. At Day 10 mice were randomized into two groups, one receiving DHX (5 mg/kg once daily i.n.) and the other, vehicle control. […] At day 24 the mice were sacrificed and compared using histology, hydroxyproline and qPCR. […] To assess whether DHX adversely effects lung remodeling in the absence of fibrosis, we also exposed control mice to DHX following an identical time course and route of exposure.

lung collagen deposition (normal healthy mice): did not alter lung collagen deposition
lung histology (normal healthy mice): did not alter lung histology
Structure (SMILES): Oc1cc2c(cc1O)[C@H]1c3ccccc3CN[C@@H]1CC2 (racemic) [Dihydrexidine]
YAP/TAZ nuclear localization stimulated by GPCR ligands (YAP/TAZ; confluent fibroblasts, endothelin-1, lysophosphatidic acid, serotonin, DHX 10 μM): blocked nuclear localization of YAP/TAZ
YAP/TAZ nuclear localization (YAP/TAZ): reduced nuclear localization of YAP/TAZ
YAP/TAZ nuclear localization (YAP/TAZ; listed as DHX): effective at inhibiting YAP/TAZ nuclear localization
potency of inhibition of YAP/TAZ nuclear localization, normal vs IPF lung fibroblasts (YAP/TAZ; normal lung fibroblasts vs those from a patient with IPF): equally potent
collagen deposition (hydroxyproline) [1]: trend toward reduced collagen deposition
histological fibrosis (trichrome) [1]: significantly improved histological fibrosis
body weight (normal healthy mice): did not alter body weight
expression of Ctgf, Col1a1, Acta2, and Fn1 (normal healthy mice): did not alter expression of Ctgf, Col1a1, Acta2, and Fn1
